Several values for one entry are separate records, joined by “and”; a condition that tells them apart may be missing. Equal values may be shown once. Marks after values point to notes of the source that are not given here.
Columns and labels:
H1299 cells = assay: Standard glucose uptake assay, H1299; format: cell-based, human; conditions: for level of glucose transport inhibition (in words) / Glucose transport inhibition (%): H1299; for % inhibition of basal glucose transport: Table 3, 30 μM in H1299 cells
Procedure: (§1) Briefly, H1299 cancer cells were treated with or without the compounds (30 μM) in triplicates for 10 min before the glucose uptake assay. Cellular glucose uptake was measured by incubating cells in the glucose-free KRP buffer with […] [^3H]2-deoxyglucose (specific activity, 40 Ci/mmol) for 30 min in the absence or presence of compounds. After the cells were washed with ice-cold PBS and lysed by 0.2 N NaOH, the cell lysates were transferred to scintillation counting vials and the radioactivity in the cell lysates was quantified by liquid scintillation counting. Cell growth measurements were performed using an MTT assay in hexads in a 96-well tissue culture plate with 5,000 cells plated in each well. The cells were incubated in presence or absence of the compounds (30 μM) for 48 h. After incubation, cell viabilities were assayed using a 96-well SPECTRAMAX™ absorbance/fluorescence plate reader (Molecular Devices).
Cancer cells are treated with or without the compounds for 10 min before the glucose uptake assay. Cellular glucose uptake will be measured by incubating cells in glucose-free RPMI 1640 with […] [^3H]2-deoxyglucose (specific activity, 40 Ci/mmol) for 30 min in the absence and presence of compounds. After the cells are washed with ice-cold PBS and lysed, the cell lysates will be transferred to scintillation counting vials and the radioactivity in the cell lysates is quantified by liquid scintillation counting.

H1299 lung cancer cells = assay: MTT cell growth / viability assay, H1299; format: cell-based, human
Procedure: as §1
MTT assays are performed by the following well-established method. In a 96 well tissue culture plate 10,000 cells are plated in each well. The cells are incubated in presence or absence of the compounds for 18 h. 3-(4,5-Dimethylthiazol-2-yl)-2,5-diphenyltetrazolium bromide (MTT) is dissolved in PBS (10 mg/ml) and filter sterilized. Three hours before the end of the incubation 20 μL of MTT solution is added to each well containing cells in a 96-well plate. The plate is incubated in an incubator at 37° C. for 3 h. Media is aspirated gently and 200 μL of DMSO is added to each well to dissolve formazan crystals. The absorbance is measured at 550 nm for cell viability.

cancer cells = assay: Anticancer screens of hydrolysis products; format: cell-based
From the text: (§2) In summary, a library of multiphenolic ester compounds as novel inhibitors of basal glucose transport and anticancer agents with a potential new target, basal glucose transport, were synthesized.

basal glucose uptake = assay: Glucose uptake of possible hydrolyzed products (FIG. 2); format: cell-based
From the text: as §2

[1] = HPLC analysis of compound stability in human serum; format: in vitro ADME; conditions: for Compound concentration (%) after incubation with serum: human serum, 37 C
Procedure: A total of 2.5 ml of compound solution was added to 22.5 ml of human serum and the mixture was incubated at 37 C for various times. The final concentration of the compound in serum was 6.8 mM. After incubation, […] of acetonitrile was added to the mixture, centrifuged to remove proteins before HPLC analysis. The relative concentration of samples at 0 h (in serum but without incubation) was arbitrarily assigned a value of 100% and all other samples were compared to the 0 h samples.

[2] = Table 2, 30 μM, untreated cells 0% inhibition

| Structure (SMILES) | Glucose transport inhibition (%) (H1299 cells; [2]) | Cell growth inhibition (%) (H1299 lung cancer cells; Table 2, 30 μM, 48 h) | Glucose transport inhibition (%) (H1299 cells; Table 12) | other results |
| --- | --- | --- | --- | --- |
| COc1cc(C(=O)Oc2ccc(Cl)cc2OC(=O)c2cc(OC)c(OC)c(OC)c2)cc(OC)c1OC [Compound 7b] | 1.7 ± 1.1 | 20.6 ± 2.1 |  | level of glucose transport inhibition (in words) (H1299 cells; 30 μM): dramatically decreased |
| O=C(Oc1cccc(OC(=O)c2ccc(O)c(O)c2)c1OC(=O)c1ccc(O)c(O)c1)c1ccc(O)c(O)c1 [Compound 2c] | 94.7 ± 0.4 | 42.2 ± 6.1 |  |  |
| O=C(Oc1cccc(F)c1OC(=O)c1cc(O)cc(O)c1)c1cc(O)cc(O)c1 [Compound 1g] | 94.0 ± 0.8 | 35.0 ± 7.6 |  | % inhibition of basal glucose transport (H1299 cells; listed as WZB-113): 96.7 ± 1.6% |
| O=C(Oc1ccccc1OC(=O)c1ccc(O)cc1)c1ccc(O)cc1 [Compound 1q] | 57.5 ± 2.9 |  |  |  |
| Oc1cccc(CNc2ccc(Cl)cc2NCc2cccc(O)c2)c1 [WZB-138] |  |  | 52.2 ± 9.7% |  |
| O=C(Oc1cccc(OC(=O)c2ccccc2O)c1OC(=O)c1ccccc1O)c1ccccc1O [Compound 2d] | 74.7 ± 2.0 |  |  |  |
| COc1cccc(C(=O)Oc2cccc(OC)c2OC(=O)c2cccc(OC)c2)c1 [Compound 7d] | 32.1 ± 0.2 | 18.3 ± 4.3 |  |  |
| Oc1cccc(O)c1O [Compound 8, pyrogallol] |  |  |  | activity in anticancer screens (cancer cells): none of these compounds showed any activity in anticancer screens; glucose uptake inhibition activity (basal glucose uptake): none of these compounds had any glucose uptake inhibition activity |
| COc1cccc(OCc2cccc(O)c2)c1OCc1cccc(O)c1 [WZB-132] |  |  | 60.0 ± 7.7% | Cell growth inhibition (%) (H1299 lung cancer cells; Table 12): 6.0 ± 2.2% |
| O=C(Oc1cccc(F)c1OC(=O)c1ccccc1O)c1ccccc1O [Compound 1m] | 51.0 ± 6.6 |  |  |  |
| COc1cccc(OC(=O)c2ccc(O)c(O)c2)c1OC(=O)c1ccc(O)c(O)c1 [Compound 1h] | 0 | 32.4 ± 2.7 |  | level of glucose transport inhibition (in words) (H1299 cells; 30 μM): little to no inhibition |
| CN(C(=O)c1cccc(O)c1)c1ccc(F)cc1N(C)C(=O)c1cccc(O)c1 [WZB-143] |  |  | 85.7 ± 3.6% | Cell growth inhibition (%) (H1299 lung cancer cells; Table 12): 31.1 ± 7.9% |
| COc1cccc(OC(=O)c2ccccc2O)c1OC(=O)c1ccccc1O [Compound 1k] | 50.5 ± 7.6 | 18.0 ± 4.4 |  |  |
| O=C(Oc1ccc(Cl)cc1OC(=O)c1cc(O)cc(O)c1)c1cc(O)cc(O)c1 [Compound 1f] | 95.2 ± 0.2 | 38.8 ± 6.9 |  | % inhibition of basal glucose transport (H1299 cells; listed as WZB-114): 96.1 ± 0.1% |
| O=C(Nc1ccc(Cl)cc1NC(=O)c1cccc(O)c1)c1cccc(O)c1 [WZB-125] |  |  | 83.7 ± 0.7% | Cell growth inhibition (%) (H1299 lung cancer cells; Table 12): 5.9 ± 1.4% |
| O=C(Nc1ccc(F)cc1NC(=O)c1cccc(O)c1)c1cccc(O)c1 [WZB-124] |  |  | 89.7 ± 2.5^b % | Cell growth inhibition (%) (H1299 lung cancer cells; Table 12): 5.7 ± 2.1% |
| COc1cc(C(=O)Oc2cccc(OC)c2OC(=O)c2cc(OC)c(OC)c(OC)c2)cc(OC)c1OC [Compound 7a] | 33.3 ± 3.6 | 22.2 ± 3.4 |  | level of glucose transport inhibition (in words) (H1299 cells; 30 μM): dramatically decreased |
| O=C(Oc1cccc(F)c1OC(=O)c1ccc(O)cc1)c1ccc(O)cc1 [Compound 1p] | 92.6 ± 0.7 | 35.9 ± 4.7 |  |  |

| Structure (SMILES) | Glucose transport inhibition (%) (H1299 cells; [2]) | Cell growth inhibition (%) (H1299 lung cancer cells; Table 2, 30 μM, 48 h) | Glucose transport inhibition (%) (H1299 cells; Table 12) | other results |
| --- | --- | --- | --- | --- |
| Oc1cccc(COc2cccc(F)c2OCc2cccc(O)c2)c1 [WZB-134] |  |  | 92.5±2.2% and 92.6 ± 2.2% | Cell growth inhibition (%) (H1299 lung cancer cells; Table 12): 10.6±2.0% |
| O=C(Oc1ccccc1OC(=O)c1cc(O)c(O)c(O)c1)c1cc(O)c(O)c(O)c1 [Compound 1d] | 32.1 ± 6.2 |  |  | level of glucose transport inhibition (in words) (H1299 cells; 30 μM): lower levels of inhibition relative to 1a and 2a |
| CN(Cc1cccc(O)c1)c1ccc(Cl)cc1N(C)Cc1cccc(O)c1 [WZB-145] |  |  | 73.2 ± 3.8% | Cell growth inhibition (%) (H1299 lung cancer cells; Table 12): 38.2 ± 6.6% |
| O=C(Oc1cccc(OC(=O)c2cc(O)cc(O)c2)c1OC(=O)c1cc(O)cc(O)c1)c1cc(O)cc(O)c1 [Compound 2b] | 98.7 ± 0.8 | 41.0 ± 5.5 |  | % inhibition of basal glucose transport (H1299 cells; listed as WZB-111): 99.5 ± 0.3% |
| O=C(Oc1cccc(F)c1OC(=O)c1ccc(O)c(O)c1)c1ccc(O)c(O)c1 [Compound 1j] | 88.7 ± 1.8 | 41.5 ± 5.5 |  |  |
| Oc1cccc(CNc2ccc(F)cc2NCc2cccc(O)c2)c1 [WZB-139] |  |  | 39.2 ± 0.8% |  |
| CN(C(=O)c1cccc(O)c1)c1ccc(Cl)cc1N(C)C(=O)c1cccc(O)c1 [WZB-142] |  |  | 82.7 ± 6.8% | Cell growth inhibition (%) (H1299 lung cancer cells; Table 12): 14.2 ± 9.0% |
| O=C(Oc1ccc(Cl)cc1OC(=O)c1ccc(O)cc1)c1ccc(O)cc1 [Compound 1o] | 79.0 ± 8.7 |  |  |  |
| CN(Cc1cccc(O)c1)c1ccc(F)cc1N(C)Cc1cccc(O)c1 [WZB-144] |  |  | 78.2±1.4% | Cell growth inhibition (%) (H1299 lung cancer cells; Table 12): 14.5±7.6% |
| COc1cccc(OC(=O)c2ccc(O)cc2)c1OC(=O)c1ccc(O)cc1 [Compound 1n] | 86.5 ± 2.8 | 36.6 ± 6.7 |  |  |
| COc1cc(C(=O)Oc2cccc(F)c2OC(=O)c2cc(OC)c(OC)c(OC)c2)cc(OC)c1OC [Compound 7c] | 7.9 ± 2.6 | 19.6 ± 3.6 |  | level of glucose transport inhibition (in words) (H1299 cells; 30 μM, listed as WZB-101): dramatically decreased levels of activity |
| O=C(Oc1ccc(Cl)cc1OC(=O)c1ccccc1O)c1ccccc1O [Compound 1l] | 51.6 ± 5.9 | 26.6 ± 2.3 |  |  |
| O=C(Oc1ccc(Cl)cc1OC(=O)c1ccc(O)c(O)c1)c1ccc(O)c(O)c1 [Compound 1i] | 94.4 ± 0.4 | 45.2 ± 7.6 |  |  |
| O=C(Oc1cccc(F)c1OC(=O)c1cc(O)c(O)c(O)c1)c1cc(O)c(O)c(O)c1 [Compound 1c] | 81.1 ± 1.1 |  |  | % inhibition of basal glucose transport (H1299 cells): 81.0 ± 1.1% |
| Oc1cccc(F)c1O [Compound 6c] |  |  |  | activity in anticancer screens (cancer cells): none of these compounds showed any activity in anticancer screens; glucose uptake inhibition activity (basal glucose uptake): none of these compounds had any glucose uptake inhibition activity |
| Oc1cccc(COc2ccc(Cl)c(OCc3cccc(O)c3)c2)c1 [WZB-141] |  |  | 96.5±0.5% | Cell growth inhibition (%) (H1299 lung cancer cells; Table 12): 39.5±1.8%; Compound concentration (%) after incubation with serum ([1]; 0 h (arbitrarily assigned 100%)): 100%; Compound concentration (%) after incubation with serum ([1]; 4 h): 103.5%; Compound concentration (%) after incubation with serum ([1]; 24 h): 109.7%; Compound concentration (%) after incubation with serum ([1]; 48 h): 87.4%; relative stability in serum ([1]; ether vs ester bond-containing compounds): much more stable in serum than ester bond-containing compounds WZB-115 and WZB-117; Compound concentration (%) after incubation with serum ([1]; l h): 100.3% |
| O=C(Oc1ccc(Cl)cc1OC(=O)c1cc(O)c(O)c(O)c1)c1cc(O)c(O)c(O)c1 [Compound 1b] | 84.4 ± 0.1 |  |  |  |
| COc1cccc(OC(=O)c2cc(O)cc(O)c2)c1OC(=O)c1cc(O)cc(O)c1 [Compound 1e] | 69.4 ± 3.0 |  |  | level of glucose transport inhibition (in words) (H1299 cells; 30 μM): little to no inhibition |

Reference: US10385005B2, “Compositions and methods for glucose transport inhibition” (OHIO UNIVERSITY, priority 2010, dated 2019)
